Experimental data from US8128943B2, “Use of oxazole derivatives for controlling fish parasites” (Novartis AG, priority 2005, dated 2012).

Legend:
salmon lice [1] = assay: Toxicity to salmon lice, contact action test in sea water beakers; assay type: in vivo, salmon louse; settings: after 24 hours; lowest concentration of 5 μg/l in sea water, 10° C.; adult salmon lice
Protocol: Biological Examples 1. Toxicity to Salmon Lice (In Vitro Test) a) Collecting and Cultivating the Salmon Lice
Adult and pre-adult stages of the salmon louse are gently removed with broad forceps from naturally infected Atlantic salmon which have been kept in fish farms, separated according to stage and sex, and kept in sea water tanks at 10° C. and under continuous aeration. The sea water used for cultivating the lice comes from the fish farm from which the infected salmon have been taken. The tests themselves are carried out over 48 hours after collecting the lice.
b) In Vivo Test for Determining the Contact Action of the Control Agent
Into each of three test sets of three 500 ml-glass beakers, filled with sea water (salinity […], temperature 10° C.) containing 5, 500 and 5000 μg/l of the active substance, respectively, 5 female and 5 male adults of salmon lice are added. The beaker are then transferred to an incubator and held at 10° C. for 48 hours in the dark. Live survival of the salmon lice is determined at 1, 24 and 48 hours from the start of the exposure. All lice are examined and recorded as alive, moribund or dead.

salmon lice [2] = assay: Toxicity against salmon lice (in vivo test) on naturally infected Atlantic salmon, bath treatment; settings: long lasting tests on salmon; one single treatment at 0.1 ppm
Protocol: 2. Toxicity Against Salmon Lice (In Vivo Test)
Five naturally infected Atlantic salmon are taken from the cage and transferred to well aerated sea water tanks. They remain there for 48 hours for acclimatization, and feed is withheld for 24 hours before the addition of test compound. A group of 5 salmon is treated at a concentration of 1.0 ppm of test compound, and a second group of 5 salmon is treated at a concentration of 0.1 ppm. The fish are kept for 24 hours in fresh sea water (without test compound) and a count is then made of dead and still living parasites. An untreated group of fish is also included in the evaluation. The test is carried out in triplicate.

fish = assay: Tolerance by fish in long lasting tests on salmon; assay type: in vivo
sea lice = settings: in sea water; cited from earlier work

Row | SMILES | survival rate (salmon lice [1]) | concentration required / effective to combat sea lice (sea lice) | other results
1 | FC(F)(F)c1ccc(-c2ccc(C3COC(c4c(Cl)cccc4Cl)=N3)cc2)cc1 (centres unmarked) [2-(2,6-Dichlorophenyl)-4-(4′-trifluoromethylbiphenyl-4-yl)-4,5-dihydro-oxazole] | 0% |  | 
2 | Fc1cccc(F)c1C1=NC(c2ccc(-c3ccc(C(F)(F)F)cc3)cc2)CO1 (centres unmarked) [2-(2,6-Difluorophenyl)-4-(4′-trifluoromethylbiphenyl-4-yl)-4,5-dihydro-oxazole] | 0% |  | control (salmon lice [2]): 100%; duration of 100% control (salmon lice [2]): at least 3 month; tolerance by fish (fish): well tolerated by fish
3 | Fc1cccc(Cl)c1C1=NC(c2ccc(-c3ccc(C(F)(F)F)cc3)cc2)CO1 (centres unmarked) [2-(2-Chloro-6-fluorophenyl)-4-(4′-trifluoromethylbiphenyl-4-yl)-4,5-dihydro-oxazole] | 0% |  | 
4 | COP(=O)(OC)OC=C(Cl)Cl [Dichlorvos, 2,2-dichloroethenyldimethyl phosphate] |  | ≥ 1 ppm | 
5 | COP(=O)(OC)C(O)C(Cl)(Cl)Cl (centres unmarked) [Trichlorfon, dimethyl-2,2,2-trichloro-1-hydroxyethylphosphonate] |  | 300 ppm | 
